In patent US9744137B2, “Topiramate compositions and methods of enhancing its bioavailability” (Supernus Pharmaceuticals, Inc., priority 2006, dated 2017):
Where two headings read alike, the source gives them in different places.

Key:
[1] = Degradation of topiramate in 0.1 N HCl (simulated gastric fluid) at 37° C., HPLC-ELSD; type: physicochemical; conditions: drug substance, 24 hours of incubation in 0.1 N HCl at 37° C.
Description: Degradation of topiramate was detected during a dissolution profile of Topamax® tablets in simulated gastric fluid (i.e., 0.1 N HCl). […] Topiramate analysis was carried out using HPLC equipped with Evaporative Laser Light Scattering Detector at 92° C. Separation was achieved using a C-8 reversed-phase column under isocratic conditions of 50% acetonitrile in water. The samples were kept at 4° C. throughout the analysis. Prior to sample injection, the system was equilibrated for 1 hr and subjected to a system suitability test. Linearity was evaluated by linearity curve with power fit. The samples were injected in duplicate and degradation was calculated using the sample area linearity slope and power.

[2] = cited from earlier work
[3] = cited from earlier work; remark: listed apart in the source
patients with epilepsy = conditions: cited from earlier work; for time leading up to the first seizure (median seizure-free duration): monotherapy

CC1(C)OC2[C@@H](CO[C@@]3(COS(N)(=O)=O)OC(C)(C)O[C@@H]23)O1 (stereo partly drawn) [topiramate, 2,3:4,5-Di-O-isopropylidene-beta-D-fructopyranose sulfamate]
topiramate degraded [1]: approximately 70%
effect of food on pharmacokinetics ([2]; in vivo): not significantly affected by food
mean elimination half life ([2]; in vivo): about 21 hours
time to peak plasma drug concentrations ([2]; oral administration of an immediate release dosage form): approximately 2 hours
plasma levels at steady state ([3]; migraine prophylaxis): 1200 to 4400 ng/mL
mean serum level ([3]; pediatric migraine study, daily dose 84.0+/−38.6 mg/day): 2800 ± 1600 ng/mL
plasma topiramate concentration (patients with epilepsy; 9 patients who became seizure-free): 5.3 ± 2.6 µg/mL
time leading up to the first seizure (median seizure-free duration) (patients with epilepsy; 215 patients with partial epilepsy, serum concentrations <1.8 mg/L): 84 days
time leading up to the first seizure (median seizure-free duration) (patients with epilepsy; serum concentrations above 9.9 mg/L): 451 days
time leading up to the first seizure (median seizure-free duration) (patients with epilepsy; serum concentrations between 1.8 and 9.9 mg/L): 194 days
mean topiramate plasma concentration (patients with epilepsy; positive responders): around 7 μg/mL
mean topiramate plasma concentration (patients with epilepsy; seizure-free patients): ~9 µg/mL
